Where a name gives a salt, the structure may show the parent alone. Read-outs that look alike come from different tables or passages of the source.
Columns and labels:
PPARγ = molecular target: T1, PPARγ (Homo sapiens, UniProt P37231); test: Evaluation of PPARγ activating action (luciferase reporter, PPARγ:RXRα:4ERPP/CHO-K1 cells); assay type: cell-based; conditions: for activation at 1 µM: CHO-K1, 24 h, read-out: PPARγ activating action (activation % (10^−6 M))
T1 construct: expressed in transfected cells; host or cells: CHO-K1
T1 sequence (P37231 1-477 isoform P37231-2): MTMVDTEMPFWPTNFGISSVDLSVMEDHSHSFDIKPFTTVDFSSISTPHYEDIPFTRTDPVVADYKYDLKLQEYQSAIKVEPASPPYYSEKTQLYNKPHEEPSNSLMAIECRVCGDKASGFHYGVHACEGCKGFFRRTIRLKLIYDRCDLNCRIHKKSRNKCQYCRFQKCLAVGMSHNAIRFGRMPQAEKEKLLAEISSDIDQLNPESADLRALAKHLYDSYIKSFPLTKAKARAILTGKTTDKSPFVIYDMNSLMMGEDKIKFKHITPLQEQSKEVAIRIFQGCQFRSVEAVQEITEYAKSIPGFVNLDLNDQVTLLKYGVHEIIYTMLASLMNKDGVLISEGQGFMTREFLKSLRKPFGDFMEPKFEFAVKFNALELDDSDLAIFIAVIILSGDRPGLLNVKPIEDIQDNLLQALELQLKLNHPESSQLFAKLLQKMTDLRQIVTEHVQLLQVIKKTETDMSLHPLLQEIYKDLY
T1 sequence (P19793 1-462 partner): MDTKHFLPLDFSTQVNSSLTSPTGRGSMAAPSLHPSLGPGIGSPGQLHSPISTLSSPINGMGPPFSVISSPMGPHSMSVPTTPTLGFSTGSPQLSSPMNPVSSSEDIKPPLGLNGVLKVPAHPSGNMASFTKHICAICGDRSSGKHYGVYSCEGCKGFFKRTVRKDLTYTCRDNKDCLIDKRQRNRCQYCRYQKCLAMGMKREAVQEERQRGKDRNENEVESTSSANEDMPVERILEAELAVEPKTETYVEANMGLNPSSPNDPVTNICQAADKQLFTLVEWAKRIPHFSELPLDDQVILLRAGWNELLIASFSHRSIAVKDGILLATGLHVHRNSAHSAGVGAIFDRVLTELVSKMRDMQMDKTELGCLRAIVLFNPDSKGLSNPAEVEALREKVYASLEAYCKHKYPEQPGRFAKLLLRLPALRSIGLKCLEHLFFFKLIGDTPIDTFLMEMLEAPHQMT
Protocol: PPARγ:RXRα:4ERPP/CHO-K1 cells obtained in the following Reference Example 5 were cultured in F12 medium [manufactured by INVITROGEN, USA] containing 10% fetal bovine serum [manufactured by MOREGATE, Australia], seeded in a 96-well half area white plate [manufactured by Corning Coster Corporation, USA] at the density of 5×10^3 cells/well and cultured in a CO2 gas incubator at 37° C. overnight.
Then the medium was removed from the 96-well half area white plate, 45 μl of Ham's F12 medium containing 0.1% fatty acid-free bovine serum albumin (BSA) and 5 μl of test compound were added, and the cells were cultured in a CO2 gas incubator at 37° C. for 1 day. The medium was removed and 20 μl of PicaGene 7.5 [manufactured by TOYO INK MFG. CO., LTD., Japan] diluted 2-fold with HBSS (HANKS' BALANCED SALT SOLUTION) [manufactured by BIO WHITTAKER, USA] was added. After stirring, the luciferase activity was determined using 1420 ARVO Multilabel Counter [manufactured by PerkinElmer, USA].
The percent (%) was calculated from the luciferase activity of each test compound when the luciferase activity of the control compound (compound X: 5-[3-(4-{[2-(2-furyl)-5-methyl-1,3-oxazol-4-yl]methoxy}-3-methoxyphenyl)propyl]-1,3-oxazolidine-2,4-dione) (1 μM) was 100% and that of the test compound non-administration group was 0%.
A CHO-K1 cell cultured in a 150 cm^2 cell culture flask [manufactured by Corning Costar Corporation, USA] containing Ham's F12 medium [manufactured by INVITROGEN, USA] supplemented with 10% fetal bovine serum [manufactured by INVITROGEN, USA] was scraped by treating with 0.5 g/L trypsin-0.2 g/L EDTA (ethylenediaminetetraacetic acid) [manufactured by Life Technologies, Inc., USA], and then the cell was washed with PBS (Phosphate-buffered saline) [manufactured by INVITROGEN, USA], centrifuged (1000 rpm, 5 minutes) and suspended in PBS. Subsequently, DNA was introduced into the cell under the conditions shown below using GENE PULSER [manufactured by Bio-Rad Laboratories, USA].
Namely, to a cuvette having a 0.4 cm gap were added 8×10^6 cells and 10 μg of plasmid pVgRXR2-hPPARγ obtained in Reference Example 4 and 10 μg of reporter plasmid pGL3-4ERPP-TK neo obtained in Reference Example 3, which was subjected to electroporation at the voltage of 0.25 kV under the capacitance of 960 μF. Subsequently, the cell was transferred into a F12 medium containing 10% fetal bovine serum and cultured for 24 hours, and then the cell was scraped again and centrifuged, and then suspended in Ham's F12 medium containing 10% fetal bovine serum supplemented with 500 μg/ml of Geneticin [manufactured by INVITROGEN, USA] and 250 μg/ml of Zeocin [manufactured by INVITROGEN, USA]. The obtained suspension was diluted to the density of 1 cells/ml and inoculated in a 96-well plate [manufactured by Corning Costar Corporation, USA], which was cultured in a CO2 gas incubator at 37° C., whereby obtaining a Geneticin- and Zeocin-resistant transformant.
Subsequently, after the transformant cell line thus obtained was cultured in a 24-well plate [manufactured by Corning Costar Corporation, USA], a cell line in which the luciferase was expressed and induced, i.e., PPARγ:RXRα:4ERPP/CHO-K1 cell was selected by the addition of 10 μM pioglitazone hydrochloride.

human AT1 receptor = molecular target: T2, human AT1 receptor (Homo sapiens, UniProt P30556); test: Binding assay using human AT1 receptor-expressing CHO-K1 cell membrane fraction ([125I]-angiotensin II); conditions: 22.5 pM [125I]-angiotensin II, 9 μg AT1 membrane, 1 hr room temperature; read-out: AT1 receptor binding inhibitory action (IC50 (nM))
T2 construct: expressed in transfected cells; host or cells: CHO-K1
T2 sequence (P30556 1-359): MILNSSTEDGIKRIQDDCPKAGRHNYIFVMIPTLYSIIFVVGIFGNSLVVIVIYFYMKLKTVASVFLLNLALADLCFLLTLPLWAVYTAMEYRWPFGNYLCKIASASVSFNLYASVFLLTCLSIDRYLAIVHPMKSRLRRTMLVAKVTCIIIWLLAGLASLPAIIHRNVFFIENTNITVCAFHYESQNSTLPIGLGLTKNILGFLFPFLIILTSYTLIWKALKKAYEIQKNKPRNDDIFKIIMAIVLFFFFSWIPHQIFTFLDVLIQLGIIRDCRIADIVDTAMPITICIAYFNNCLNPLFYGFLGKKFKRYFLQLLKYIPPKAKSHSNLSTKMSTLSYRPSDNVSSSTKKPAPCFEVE
Protocol: The membrane fraction for human AT1 receptor binding assay was prepared as follows. CHO-K1 cell capable of stable expression of human AT1 receptor was cultured, recovered, suspended in homogenize buffer (10 mM NaHCO3 (pH 7.4), 5 mM EDTA, 1×Complete EDTA free) [manufactured by Roche, Switzerland], and homogenized. The homogenate was centrifuged at low-speed (900×g, 10 min, 4° C.), and the supernatant was recovered and ultracentrifuged (90,000×g, 1 hr, 4° C.). The supernatant was discarded, and the pellets were resuspended in resuspension buffer (50 mM Tris (pH 7.4), 1 mM EDTA, 1×Complete EDTA free).
The binding assay was performed in the presence of 22.5 pM [^125I]-angiotensin II [manufactured by PerkinElmer, USA], 9 μg of AT1 membrane and test compound in 100 μL (total reaction volume) of reaction buffer (50 mM Tris (pH 7.4), 10 mM MgCl2 supplemented or not supplemented with 0.3 mg/mL fatty acid-free bovine serum albumin [manufactured by Wako Pure Chemical Industries, Ltd., Japan]). […] The filter was air-dried, and [^125I]-angiotensin II binding radioactivity was assayed with Top Count scintillation counter. Total binding was measured in the presence of 1% DMSO and nonspecific binding was measured in the presence of 1 μM CV-11974. […]

[1] = test compound 10^−6 M, luciferase activity of control compound X (1 μM) = 100%, non-administration group = 0%

Compound | PPARγ activating action (activation % (10^−6 M)) (PPARγ; [1]) | also measured
CCCCc1nc(CC)n(Cc2ccccc2)c(=O)c1Cc1ccc(-c2ccccc2-c2noc(=O)[nH]2)cc1 [Example 105, 3-benzyl-6-butyl-2-ethyl-5-{[2′-(5-oxo-4,5-dihydro-1,2,4-oxadiazol-3-yl)biphenyl-4-yl]methyl}pyrimidin-4(3H)-one] | 64.1% | –
CCCCc1nc(CC)n(CC(=O)C(C)(C)C)c(=O)c1Cc1ccc(-c2ccccc2-c2noc(O)n2)cc1 [Example 309, 6-butyl-3-(3,3-dimethyl-2-oxobutyl)-2-ethyl-5-{[2′-(5-oxo-4,5-dihydro-1,2,4-oxadiazol-3-yl)biphenyl-4-yl]methyl}pyrimidin-4(3H)-one potassium salt] | – | IC50 (human AT1 receptor): 1.6 nM; activation at 1 µM (PPARγ): 31.5%
CCCCc1nc(C2CC2)n(-c2ccccc2)c(=O)c1Cc1ccc(-c2ccccc2-c2noc([O-])n2)cc1.[K+] [Example 310, 6-butyl-2-cyclopropyl-5-{[2′-(5-oxo-4,5-dihydro-1,2,4-oxadiazol-3-yl)biphenyl-4-yl]methyl}-3-phenylpyrimidin-4(3H)-one potassium salt] | 27.1% | –
CCCc1nc(CC)n(-c2ccc3c(c2)CCO3)c(=O)c1Cc1ccc(-c2ccccc2-c2noc([O-])n2)cc1.[K+] [Example 311, 3-(2,3-dihydro-1-benzofuran-5-yl)-2-ethyl-5-{[2′-(5-oxo-4,5-dihydro-1,2,4-oxadiazol-3-yl)biphenyl-4-yl]methyl}-6-propylpyrimidin-4(3H)-one potassium salt] | 38.1% | –
CCCc1nc(CC)n(-c2ccc3c(c2)CC(C)O3)c(=O)c1Cc1ccc(-c2ccccc2-c2noc([O-])n2)cc1.[K+] (centres unmarked) [Example 312, 2-ethyl-3-(2-methyl-2,3-dihydro-1-benzofuran-5-yl)-5-{[2′-(5-oxo-4,5-dihydro-1,2,4-oxadiazol-3-yl)biphenyl-4-yl]methyl}-6-propylpyrimidin-4(3H)-one potassium salt] | 50.3% | –
CCCc1nc(CC)n(-c2ccc(OC)cc2)c(=O)c1Cc1ccc(-c2ccccc2-c2noc([O-])n2)cc1.[K+] [Example 313, 2-ethyl-3-(4-methoxyphenyl)-5-{[2′-(5-oxo-4,5-dihydro-1,2,4-oxadiazol-3-yl)biphenyl-4-yl]methyl}-6-propylpyrimidin-4(3H)-one potassium salt] | 31.0% | –
CCCc1nc(C(F)F)n(-c2ccc(OC)cc2)c(=O)c1Cc1ccc(-c2ccccc2-c2noc(=O)[nH]2)cc1 [Example 410, 2-(difluoromethyl)-3-(4-methoxyphenyl)-5-{[2′-(5-oxo-4,5-dihydro-1,2,4-oxadiazol-3-yl)biphenyl-4-yl]methyl}-6-propylpyrimidin-4(3H)-one] | – | activation at 1 µM (PPARγ; [1]): 19.5%
CCCc1nc(CC)c(C(O)C(C)C)c(=O)n1Cc1ccc(-c2ccccc2-c2noc(O)n2)cc1 (centres unmarked) [Example 473, 6-ethyl-5-(1-hydroxy-2-methylpropyl)-3-{[2′-(5-oxo-4,5-dihydro-1,2,4-oxadiazol-3-yl)biphenyl-4-yl]methyl}-2-propylpyrimidin-4(3H)-one potassium salt] | 15.7% | –
CCCc1nc(C)c(Oc2ccc(OC)cc2)c(=O)n1Cc1ccc(-c2ccccc2-c2noc(O)n2)cc1 [Example 476, 5-(4-methoxyphenoxy)-6-methyl-3-{[2′-(5-oxo-4,5-dihydro-1,2,4-oxadiazol-3-yl)biphenyl-4-yl]methyl}-2-propylpyrimidin-4(3H)-one potassium salt] | 18.5% | –
CCCc1nc(CC)c(Oc2cccc(OC)c2)c(=O)n1Cc1ccc(-c2ccccc2-c2noc(O)n2)cc1 [Example 488, 6-ethyl-5-(3-methoxyphenoxy)-3-{[2′-(5-oxo-4,5-dihydro-1,2,4-oxadiazol-3-yl)biphenyl-4-yl]methyl}-2-propylpyrimidin-4(3H)-one potassium salt] | 16.7% | –
